B1: GMFb: glial maturation factor beta, shown to induce a pro-inflammatory state in astrocytes; from Peprotech (protein, UniProt Q9CQI3 2-142, looked up)
Glia maturation factor beta: SESLVVCDVAEDLVEKLRKFRFRKETHNAAIIMKIDKDERLVVLDEELEGVSPDELKDELPERQPRFIVYSYKYQHDDGRVSYPLCFIFSSPVGCKPEQQMMYAGSKNKLVQTAELTKVFEIRNTEDLTEEWLREKLGFFH
B2: Mcp2: cytokine over expressed in mutant glia; from Peprotech (protein, UniProt Q9Z121 24-97, looked up)
C-C motif chemokine 8: GPDKAPVTCCFHVLKLKIPLRVLKSYERINNIQCPMEAVVFQTKQGMSLCVDPTQKWVSEYMEILDQKSQILQP

system: Hb9::GFP human ES cell-derived motor neurons; assay: Survival of Hb9::GFP human ES cell-derived motor neurons in co-culture with non-transgenic (WT) glia; format: cell-based; conditions: non-transgenic (WT) mouse glia pretreated 1 day, 20 days of treatment; MCP2, Cxc17, Rantes 100 ng/ml; GMFb 250 ng/ml; PGD2 10 μM; Shh agonist 11M [sic]; n=3
Protocol: (§1) Differentiation of human Embryonic Stem Cells into motor neurons. For differentiation into motor neurons, the cells were allowed to reach 80-90% confluency, washed once with PBS, and then incubated for 15 minutes at 37° C. in a solution of 1 g/L Collagenase IV (GIBCO) in DMEM-F12 (GIBCO).
After 24 hours, the cells had aggregated to form embryoid bodies (EBs), and the media was changed to remove debris by centrifuging the EBs and resuspending in fresh in human ES cell media without bFGF2 or plasmanate in low attachment 6-well plates. EBs were cultured as such for 13 more days, with half of the media changed every two days, and a complete media change every week. After 14 days, the EBs were induced toward a caudal and ventral identity using retinoic acid (1 μM, Sigma) and an agonist of the Shh signaling pathway (1 μM) in N2 media: 1:1 DMEM:F-12+Glutamate (Gibco), 10,000 units Penicillin and 1 mg/mL Streptomicin (Gibco), 1% N2 Supplement (Gibco), 0.2 mM ascorbic acid (Sigma-Aldrich), 0.16% D-(+)-Glucose (Sigma-Aldrich), BDNF (10 ng/ml, R&D Systems), for another 14 days. The EBs were then matured for a final 14 days in N2 media with GNDF (10 ng/mL, R&D Systems). After 42 days of differentiation, the EBs were dissociated. To dissociate the EBs, they were centrifuged at 1000 rpm for 5 min in a 15 ml falcon tube, and then washed once with PBS to eliminate residual media. The EBs were then incubated for 60 minutes at 37° C. in Earle's Balanced Salt Solution with 20 units of papain and 1000 units of Deoxyribonuclease I (Worthington Biochemical Corporation). EBs were triturated using a 2 mL serological pipette every 15-20 minutes during this incubation. When an almost single cell suspension was achieved, the cells were centrifuged for 5 minutes at 1000 RPM. The resulting cell pellet was washed once with PBS and then resuspended in N2 media with neurotrophic factors (GDNF, and BDNF (10 ng/ml, R&D Systems)). These cells were then counted and plated on Poly-D-Lysine/Laminin CultureSlides (BD biosciences) or on a layer of primary glial cells. Depending on the experiment, motor neurons or interneurons were counted 10 or 20 days after plating.
Primary Glial Cultures. P1-P3 mouse pups transgenic for SOD1G93A, SOD1WT or non-transgenic pups were sacrificed by using an approved method of euthanasia. Under a dissection microscope, the parenquima were isolated and the meninges were carefully stripped away with fine forceps. The tissue was then dissected into small pieces and transferred to a solution containing 12 ml of HBSS, 1.5 ml of trypsin (GIBCO) and 1% DNAse (Sigma) and incubated at 37° C. for 15 min, swirling the mixture periodically. The supernatant containing the dissociated cells was then collected and 3 ml of serum was added to inhibit trypsin activity.
The cells were then centrifuged at 1000 rpm for 5 min, resuspended in Glia medium: (Minimun Essential Medium with Earl's salts (GIBCO), D-(+)-Glucose 20% (Sigma), Penicillin-streptomycin (GIBCO), 10% Horse Serum (GIBCO)) and plated at the concentration of 80,000 cells per mL in T75 flasks (Falcon). After the glia reached confluency, they were replated onto Poly-D-Lysine/Laminin CultureSlides (BD biosciences).
Non-transgenic glia were individually pretreated for 1 day with either one of the three cytokines MCP2, Cxc17, or Rantes; with GMFb; an agonist of SHH pathway; or with PGD2.

Q: With `CCCCC[C@H](O)/C=C/[C@H]1C(=O)C[C@H](O)[C@@H]1C/C=C\CCCC(=O)O` [PGD2, prostaglandin D2] as the molecule, how does the “number of GFP positive motor neurons compared to the control condition” value (from here on “number … compared to the control condition”) read?
A: The value was 19%+/−2%.

Q: With `CNC1CCC(N(Cc2cccc(-c3ccncc3)c2)C(=O)c2sc3ccccc3c2Cl)CC1` (stereo not drawn) [SHH agonist] as the molecule, how does the “number … compared to the control condition” value read?
A: The value was 97%+/−12%.

Q: For Rantes, which “number … compared to the control condition” value is on record?
A: Its value is 108%+/−20%.

Q: For B1, which “number … compared to the control condition” value is on record?
A: The value was 95%+/−9%.

Q: Which “number … compared to the control condition” value does the source give for B2 here?
A: The value was 103%+/−8%.

system: Hb9::GFP human ES cell-derived motor neurons; assay: not given; conditions: SOD1G93A glia pretreated 1 day, MK 0524 10 μM, 20 days; p<0.05; n=3
Protocol: as §1
After 24 hours, the cells had aggregated to form embryoid bodies (EBs), and the media was changed to remove debris by centrifuging the EBs and resuspending in fresh in human ES cell media without bFGF2 or plasmanate in low attachment 6-well plates. EBs were cultured as such for 13 more days, with half of the media changed every two days, and a complete media change every week. After 14 days, the EBs were induced toward a caudal and ventral identity using retinoic acid (1 μM, Sigma) and an agonist of the Shh signaling pathway (1 μM) in N2 media: 1:1 DMEM:F-12+Glutamate (Gibco), 10,000 units Penicillin and 1 mg/mL Streptomicin (Gibco), 1% N2 Supplement (Gibco), 0.2 mM ascorbic acid (Sigma-Aldrich), 0.16% D-(+)-Glucose (Sigma-Aldrich), BDNF (10 ng/ml, R&D Systems), for another 14 days. […] These cells were then counted and plated on Poly-D-Lysine/Laminin CultureSlides (BD biosciences) or on a layer of primary glial cells. Depending on the experiment, motor neurons or interneurons were counted 10 or 20 days after plating. […]

Q: Which “increase in the number of GFP positive neurons relative to untreated neurons plated on the same glia” value does the source give for `CS(=O)(=O)c1cc(F)cc2c3c(n(Cc4ccc(Cl)cc4)c12)[C@@H](CC(=O)O)CC3` [MK 0524] here?
A: Its value is 32%.
